Experimental data from patent publication US9365584B2, “Thieno [2,3-B] pyridinedione activators of AMPK and therapeutic uses thereof” (Poxel, priority 2009, dated 2016).

Test system: AMPK
Test: AMPK enzyme activity assay (Delfia technology, AMARA peptide substrate)
Assay type: biochemical
Settings: compound at 30 μM vs AMP at 200 μM
Procedure: The following biological test allows the determination of the efficacy of compounds of formula (1) onto AMPK protein.
AMPK enzyme activities were assayed by using a Delfia technology. AMPK enzyme activities were carried out in microtiter plates in the presence of a synthetic peptide substrate (AMARAASAAALARRR, the “AMARA” peptide) and activators in serial dilutions. Reactions were initiated by the addition of AMPK. Enzyme activity was assayed by using an anti-phosphoserine antibody to measure the quantity of phosphate incorporated into the AMARAA.
No: Number of the molecule
Activity: Ratio between the % of control (basal activity) of compound of formula (1) at 30 μM and the % of control (basal activity) of AMP (natural substrate) at 200 μM.

Row | Structure (SMILES) | Activity: Ratio between the % of control (basal activity) of compound of formula (1) at 30 μM and the % of control (basal activity) of AMP (natural substrate) at 200 μM
1 | COc1cccc(-c2c(Cl)sc3c2C(=O)C(C)(c2cccc(OC)c2)C(=O)N3)c1 (centres unmarked) [No 61, 2-chloro-3,5-bis(3-methoxyphenyl)-5-methyl-7H-thieno[2,3-b]pyridine-4,6-dione] | C (C≧75%)
2 | COc1cccc(-c2c(Cl)sc3c2C(=O)C(C)(c2cccc(F)c2)C(=O)N3)c1 (centres unmarked) [No 62, 2-chloro-5-(3-fluorophenyl)-3-(3-methoxyphenyl)-5-methyl-7H-thieno[2,3-b]pyridine-4,6-dione] | C (C≧75%)
3 | COc1cccc(C2(C)C(=O)Nc3sc(Cl)c(-c4ccc(F)cc4)c3C2=O)c1 (centres unmarked) [No 63, 2-chloro-3-(4-fluorophenyl)-5-(3-methoxyphenyl)-5-methyl-7H-thieno[2,3-b]pyridine-4,6-dione] | C (C≧75%)
4 | CC1(c2cccc(S(C)(=O)=O)c2)C(=O)Nc2sc(Cl)c(-c3ccc(F)cc3)c2C1=O (centres unmarked) [No 64, 2-chloro-3-(4-fluorophenyl)-5-methyl-5-(3-methyl-sulfonylphenyl)-7H-thieno[2,3-b]pyridine-4,6-dione] | C (C≧75%)
5 | COc1ccccc1-c1c(Cl)sc2c1C(=O)C(C)(c1ccc(C)cc1)C(=O)N2 (centres unmarked) [No 65, 2-chloro-3-(2-methoxyphenyl)-5-methyl-5-(p-tolyl)-7H-thieno[2,3-b]pyridine-4,6-dione] | C (C≧75%)
6 | COc1ccccc1-c1c(Cl)sc2c1C(=O)C(C)(c1cccc(F)c1)C(=O)N2 (centres unmarked) [No 66, 2-chloro-5-(3-fluorophenyl)-3-(2-methoxyphenyl)-5-methyl-7H-thieno[2,3-b]pyridine-4,6-dione] | C (C≧75%)
7 | COc1ccc(C2(C)C(=O)Nc3sc(Cl)c(-c4ccccc4OC)c3C2=O)cc1 (centres unmarked) [No 67, 2-chloro-3-(2-methoxyphenyl)-5-(4-methoxyphenyl)-5-methyl-7H-thieno[2,3-b]pyridine-4,6-dione] | C (C≧75%)
8 | COc1cccc(C2(C)C(=O)Nc3sc(Cl)c(-c4ccccc4OC)c3C2=O)c1 (centres unmarked) [No 68, 2-chloro-3-(2-methoxyphenyl)-5-(3-methoxyphenyl)-5-methyl-7H-thieno[2,3-b]pyridine-4,6-dione] | C (C≧75%)
9 | COc1ccccc1-c1c(Cl)sc2c1C(=O)C(C)(c1ccccc1F)C(=O)N2 (centres unmarked) [No 69, 2-chloro-5-(2-fluorophenyl)-3-(2-methoxyphenyl)-5-methyl-7H-thieno[2,3-b]pyridine-4,6-dione] | C (C≧75%)
10 | Cc1sc2c(c1-c1ccccc1)C(=O)C(F)(c1ccccc1)C(=O)N2 (centres unmarked) [No 70, 5-fluoro-2-methyl-3,5-diphenyl-7H-thieno[2,3-b]pyridine-4,6-dione] | C (C≧75%)
11 | O=C1Nc2sc(Cl)c(-c3cccnc3)c2C(=O)C1(F)c1ccccc1 (centres unmarked) [No 71, 2-chloro-5-fluoro-5-phenyl-3-(3-pyridyl)-7H-thieno[2,3-b]pyridine-4,6-dione] | B (50%≦B<75%)
12 | O=C1Nc2sc(Cl)c(-c3ccc(O)cc3)c2C(=O)C1(F)c1ccccc1 (centres unmarked) [No 72, 2-chloro-5-fluoro-3-(4-hydroxyphenyl)-5-phenyl-7H-thieno[2,3-b]pyridine-4,6-dione] | C (C≧75%)
13 | O=C1Nc2sc(Cl)c(-c3ccccc3F)c2C(=O)C1(F)c1ccccc1 (centres unmarked) [No 73, 2-chloro-5-fluoro-3-(2-fluorophenyl)-5-phenyl-7H-thieno[2,3-b]pyridine-4,6-dione] | C (C≧75%)
14 | COc1ccc(-c2c(Cl)sc3c2C(=O)C(F)(c2ccccc2)C(=O)N3)c(F)c1 (centres unmarked) [No 74, 2-chloro-5-fluoro-3-(2-fluoro-4-methoxy-phenyl)-5-phenyl-7H-thieno[2,3-b]pyridine-4,6-dione] | C (C≧75%)
15 | Cc1ccc(C2(C)C(=O)Nc3sc(Cl)c(-c4ccccc4F)c3C2=O)cc1 (centres unmarked) [No 75, 2-chloro-3-(2-fluorophenyl)-5-methyl-5-(p-tolyl)-7H-thieno[2,3-b]pyridine-4,6-dione] | A (0%<A<50%)
16 | COc1cccc(C2(C)C(=O)Nc3sc(Cl)c(-c4ccccc4F)c3C2=O)c1 (centres unmarked) [No 76, 2-chloro-3-(2-fluorophenyl)-5-(3-methoxyphenyl)-5-methyl-7H-thieno[2,3-b]pyridine-4,6-dione] | A (0%<A<50%)
17 | O=C1Nc2sc(Cl)c(-c3ccc(O)c(F)c3)c2C(=O)C1(F)c1ccccc1 (centres unmarked) [No 77, 2-chloro-5-fluoro-3-(3-fluoro-4-hydroxy-phenyl)-5-phenyl-7H-thieno[2,3-b]pyridine-4,6-dione] | B (50%≦B<75%)
18 | COc1ccccc1C1(F)C(=O)Nc2sc(C)c(-c3ccccc3)c2C1=O (centres unmarked) [No 78, 5-fluoro-5-(2-methoxyphenyl)-2-methyl-3-phenyl-7H-thieno[2,3-b]pyridine-4,6-dione] | A (0%<A<50%)
19 | Cc1cccc(-c2c(Cl)sc3c2C(=O)C(F)(c2ccccc2)C(=O)N3)c1 (centres unmarked) [No 79, 2-chloro-5-fluoro-3-(m-tolyl)-5-phenyl-7H-thieno[2,3-b]pyridine-4,6-dione] | C (C≧75%)
20 | Cc1ccc(-c2c(Cl)sc3c2C(=O)C(F)(c2ccccc2)C(=O)N3)cc1 (centres unmarked) [No 80, 2-chloro-5-fluoro-5-phenyl-3-(p-tolyl)-7H-thieno[2,3-b]pyridine-4,6-dione] | C (C≧75%)
21 | COc1ccc(-c2c(Cl)sc3c2C(=O)C(F)(c2ccccc2)C(=O)N3)cc1 (centres unmarked) [No 81, 2-chloro-5-fluoro-3-(4-methoxyphenyl)-5-phenyl-7H-thieno[2,3-b]pyridine-4,6-dione] | B (50%≦B<75%)
22 | CS(=O)(=O)c1cccc(C2(F)C(=O)Nc3sc(Cl)c(-c4ccccc4)c3C2=O)c1 (centres unmarked) [No 82, 2-chloro-5-fluoro-5-(3-methylsulfonylphenyl)-3-phenyl-7H-thieno[2,3-b]pyridine-4,6-dione] | A (0%<A<50%)
23 | Cc1cccc(C2(C)C(=O)Nc3sc(Cl)c(-c4ccc(F)cc4)c3C2=O)c1 (centres unmarked) [No 83, 2-chloro-3-(4-fluorophenyl)-5-methyl-5-(m-tolyl)-7H-thieno[2,3-b]pyridine-4,6-dione] | A (0%<A<50%)
24 | COc1ccc(C2(C)C(=O)Nc3sc(Cl)c(-c4ccccc4F)c3C2=O)cc1 (centres unmarked) [No 84, 2-chloro-3-(2-fluorophenyl)-5-(4-methoxyphenyl)-5-methyl-7H-thieno[2,3-b]pyridine-4,6-dione] | B (50%≦B<75%)
25 | COc1ccc(-c2c(Cl)sc3c2C(=O)C(C)(c2cccc(F)c2)C(=O)N3)cc1 (centres unmarked) [No 85, 2-chloro-5-(3-fluorophenyl)-3-(4-methoxyphenyl)-5-methyl-7H-thieno[2,3-b]pyridine-4,6-dione] | A (0%<A<50%)
26 | COc1ccc(-c2c(Cl)sc3c2C(=O)C(C)(c2ccc(OC)cc2)C(=O)N3)cc1 (centres unmarked) [No 86, 2-chloro-3,5-bis(4-methoxyphenyl)-5-methyl-7H-thieno[2,3-b]pyridine-4,6-dione] | A (0%<A<50%)
27 | COc1ccc(-c2c(Cl)sc3c2C(=O)C(C)(c2cccc(C)c2)C(=O)N3)cc1 (centres unmarked) [No 87, 2-chloro-3-(4-methoxyphenyl)-5-methyl-5-(m-tolyl)-7H-thieno[2,3-b]pyridine-4,6-dione] | A (0%<A<50%)
28 | COc1ccc(-c2c(Cl)sc3c2C(=O)C(C)(c2cccc(OC)c2)C(=O)N3)cc1 (centres unmarked) [No 88, 2-chloro-5-(3-methoxyphenyl)-3-(4-methoxyphenyl)-5-methyl-7H-thieno[2,3-b]pyridine-4,6-dione] | A (0%<A<50%)
29 | CC1(c2ccccc2F)C(=O)Nc2sc(Cl)c(-c3ccccc3F)c2C1=O (centres unmarked) [No 89, 2-chloro-3,5-bis(2-fluorophenyl)-5-methyl-7H-thieno[2,3-b]pyridine-4,6-dione] | A (0%<A<50%)
